Test system: MCF-7, clone WS8, cells
Assay: MCF-7 cell proliferation assay of estrogenic activity
Format: cell-based, human
Conditions: logarithmic value (base 10) of Relative Proliferative Effect in the MCF-7 assay; table gives 'expected or measured' values
Excerpt: The MCF-7 assay is a useful test for assessing whether a polyhydric phenol compound is appreciably non-estrogenic. The MCF-7 assay uses MCF-7, clone WS8, cells to measure whether and to what extent a substance induces cell proliferation via estrogen receptor (ER)-mediated pathways. The method is described in “Test Method Nomination: MCF-7 Cell Proliferation Assay of Estrogenic Activity” submitted for validation by CertiChem, Inc. to the National Toxicology Program Interagency Center for the Evaluation of Alternative Toxicological Methods (NICEATM) on Jan. 19, 2006 (available online at http://iccvam.niehs.nih.gov/methods/endocrine/endodocs/SubmDoc.pdf).
A brief summary of the method of the aforementioned MCF-7 assay is provided below. MCF-7, clone WS8, cells are maintained at 37° C. in RMPI (or Roswell Park Memorial Institute medium) containing Phenol Red (e.g., GIBCO Catalog Number 11875119) and supplemented with the indicated additives for routine culture. An aliquot of cells maintained at 37° C. are grown for 2 days in phenol-free media containing 5% charcoal stripped fetal bovine serum in a 25 cm^2 tissue culture flask. Using a robotic dispenser such as an epMotion 5070 unit, MCF-7 cells are then seeded at 400 cells per well in 0.2 ml of hormone-free culture medium in Corning 96-well plates. The cells are adapted for 3 days in the hormone-free culture medium prior to adding the chemical to be assayed for estrogenic activity. The media containing the test chemical is replaced daily for 6 days. At the end of the 7-day exposure to the test chemical, the media is removed, the wells are washed once with 0.2 ml of HBSS (Hanks' Balanced Salt Solution), and then assayed to quantify amounts of DNA per well using a micro-plate modification of the Burton diphenylamine (DPA) assay, which is used to calculate the level of cell proliferation.
RPE is the ratio between the EC50 of the test chemical and the EC50 of the control substance 17-beta estradiol times 100, where EC50 is “effective concentration […]” or half-maximum stimulation concentration for cell proliferation measured as total DNA in the MCF-7 assay.

SMILES | Log RPE
C/C=C(/C(=C/C)c1ccc(O)cc1)c1ccc(O)cc1 [dienestrol, reference compound] | about 2
C[C@]12CC[C@@H]3c4ccc(O)cc4CC[C@H]3[C@@H]1CC[C@@H]2O [17β-estradiol, reference compound] | 2.00
Oc1ccccc1Cc1ccccc1O [Structure 11] | less than −4
O=c1c(-c2ccc(O)cc2)coc2cc(O)cc(O)c12 [Genistein, reference compound] | −2
CC(c1ccccc1)(c1ccc(O)cc1)c1ccc(O)cc1 [Structure 4] | −3
CC(C)(C)c1cc(O)c(C(C)(C)C)cc1O [Structure 12] | less than −4
CC/C(=C(/CC)c1ccc(O)cc1)c1ccc(O)cc1 [diethylstilbestrol, reference compound] | about 2
CC(C)(c1ccc(O)cc1)c1ccc(C(C)(C)c2ccc(O)cc2)cc1 [Structure 10] | less than −4
O=S(=O)(c1ccc(O)cc1)c1ccc(O)cc1 [Bisphenol S, reference compound] | −2
CC(C(=O)O)(c1ccc(O)cc1)c1ccc(O)cc1 [Structure 5] | less than −4
CC(C)(c1cc(Br)c(O)c(Br)c1)c1cc(Br)c(O)c(Br)c1 [Structure 16] | −3
CCCC(c1cc(C(C)(C)C)c(O)cc1C)c1cc(C(C)(C)C)c(O)cc1C [Structure 7] | less than −4
CC(c1ccc(O)cc1)(c1ccc(O)cc1)c1ccc(O)cc1 [Structure 3] | −3
Oc1ccc(Cc2ccc(O)cc2)cc1 [Bisphenol F, reference compound] | −2

Source: patent US12043448B2, “Compositions for containers and other articles and methods of using same” (SWIMC LLC, priority 2012, dated 2024)
